Laboratory results: patent publication EP4559922A1, “ANTIHISTAMINE COMPOUND, PREPARATION METHOD THEREFOR AND USE THEREOF” (HC Synthetic Pharmaceutical Co., Ltd., priority 2022, dated 2024)
Converted amounts (≈) assume the structure as drawn.

Legend:
[1] = tested on: histamine-induced asthma in guinea pigs; experiment: Antiasthmatic effect on histamine-induced asthma in guinea pigs (latency period); type: in vivo; details: X±s, n = 5; for Post-administration latency period: 1 mg/kg oral gavage, sixty minutes after administration, histamine hydrochloride spray, capped at 8 minutes; for Pre-administration latency period: baseline before administration, histamine hydrochloride 0.8 mg/mL sprayed 40 seconds
Description: The guinea pigs were placed in a polymethyl methacrylate bell jar and a histamine hydrochloride solution was sprayed ultrasonically (0.8 mg/mL) for 40 seconds. The time point at which the guinea pigs developed asthma was recorded. The time of convulsion and fall was taken as the latency period. Guinea pigs with a latency period exceeding 180 seconds were not selected. […] The guinea pigs were administered by oral gavage at a dose of 2 mL/kg·bw. Sixty minutes after the administration, the guinea pigs were placed in bell jars, and histamine hydrochloride solution was sprayed under the same conditions as in the previous selection. The latency period for the onset of asthma was recorded. […] The results were processed statistically.

[2] = Solubility of the compounds in water, methanol and isopropanol; type: physicochemical; details: for Solubility in Water: solvent water; for Solubility in Isopropanol: solvent isopropanol; for Solubility in Methanol: solvent methanol
Description: The solubility in water, methanol, and isopropanol of the compounds of the present disclosure and the comparative compounds were measured separately.

[3] = Antagonism of histamine-induced contraction of isolated ileal smooth muscle of guinea pigs; details: relative to tone after adding histamine; x±s, n = 8; 3 min
Description: (§1) The guinea pig was knocked unconscious with a wooden stick, and the abdomen was immediately dissected to separate the ileum about 15 cm in length. The contents of the intestinal segment were flushed with Tyrode's solution and placed in Tyrode's solution at a constant temperature of 37°C for later use, and oxygen was supplied simultaneously. The experimental intestinal tract (1 cm in length) was cut and placed into 20 ml of Tyrode's solution at a constant temperature of 37°C with a continuous oxygen supply. One end of the intestine was fixed on the ventilation hook and the other end was connected to the muscle tone transducer and led to the computer interface. The muscle tone value of the ileal smooth muscle was recorded with a BL system. The experiment was carried out after the intestinal segment contraction became stable.
(§2) After the ileal peristalsis curve stabilized, the tone values before adding the compound were recorded, and then 0.05 mL of histamine was added. […] The operation was repeated 8 times. The antispasmodic percentage was calculated using the following equation. Antispasmodic percentage =; (Tone value after adding histamine−Tone value after adding subject compound)/(Tone value after adding histamine) × 100% [formula]

histamine = experiment: as above; details: x±s, n = 8; for Smooth muscle tone After administration: 3 minutes after adding 0.05 mL compound following histamine; for Smooth muscle tone After addition of histamine: after 0.05 mL histamine, before compound; for Smooth muscle tone Before administration: baseline before histamine
Description: as §1, §2

[4] = tested on: isolated ileal smooth muscle of guinea pigs; experiment: Effect on muscle tone of isolated ileal smooth muscle of guinea pigs (no histamine added); details: X±s; for Smooth muscle tone After administration: 5 minutes after adding drug; for Smooth muscle tone After administration / Smooth muscle tone Before administration: n = 8; for Smooth muscle tone Before administration: baseline; for Antispasmodic percentage: relative to tone before adding compound, n = 8, 5 min
Description: as §1
After the ileum contraction curve stabilized, the tone values before adding the drug were recorded, then the drug or DMSO was added, and the average tone value of the ileum contraction curve at that point was recorded 5 minutes later. The operation was repeated 8 times. The antispasmodic percentage was calculated according to the following formula. Antispasmodic percentage =; (Tone value before adding subject compound−Tone value after adding subject compound)/(Tone value before adding subject compound); × 100% [formula]

[5] = Accelerated stability test; type: physicochemical; details: 40°C ± 2°C, relative humidity 75% ± 5%

Solubility in Water [2] | Solubility in Isopropanol [2] [mg/mL] | Solubility in Methanol [2] [mg/mL] | SMILES | Post-administration latency period [1] [s] | Pre-administration latency period [1] [s] | Antispasmodic percentage [3] [%] | Smooth muscle tone After administration (histamine) [g] | Smooth muscle tone After addition of histamine (histamine) [g] | Smooth muscle tone Before administration (histamine) [g] | Smooth muscle tone After administration [4] [g] | Smooth muscle tone Before administration [4] [g] | Antispasmodic percentage ([4]; 5 min) [%] | Antispasmodic percentage [4] [%] | further results
20 mg/mL (≈ 49.3 mM) | – | – | O=C1Cc2ccccc2C(=C2CCN(COP(=O)(O)O)CC2)c2ccsc21 [Compound III-1] | 376.25 ± 51.77 | 98.57 ± 49.10 | 66.76±16.11 | 1.14 ± 0.23 | 3.43 ± 1.06 | 1.79 ± 0.21 | 1.18 ± 0.25 | 1.70 ± 0.17 | 30.59±18.11 | – | –
20 mg/mL (≈ 44.7 mM) | – | – | O=C1Cc2ccccc2C(=C2CCN(CCCCOP(=O)(O)O)CC2)c2ccsc21 [Compound III-4] | 369.49 ± 51.06 | 99.07 ± 50.25 | 64.24±17.11 | 1.23 ± 0.24 | 3.44 ± 0.96 | 1.78 ± 0.17 | 1.16 ± 0.23 | 1.72 ± 0.16 | 32.55±18.33 | – | –
20 mg/mL (≈ 43.3 mM) | – | – | O=C1Cc2ccccc2C(=C2CCN(CCCCCOP(=O)(O)O)CC2)c2ccsc21 [Compound III-5] | 375.52 ± 49.26 | 102.32 ± 54.23 | 65.01±18.17 | 1.20 ± 0.21 | 3.43 ± 0.93 | 1.73 ± 0.21 | 1.13 ± 0.31 | 1.70 ± 0.20 | 33.53±19.21 | – | –
20 mg/mL (≈ 41.9 mM) | – | – | O=C1Cc2ccccc2C(=C2CCN(CCCCOCOP(=O)(O)O)CC2)c2ccsc21 [Compound III-8] | 376.24 ± 50.42 | 99.49 ± 51.11 | 66.47±18.83 | 1.12 ± 0.21 | 3.42 ± 0.99 | 1.78 ± 0.20 | 1.16 ± 0.21 | 1.70 ± 0.29 | 31.76±18.69 | – | –
20 mg/mL (≈ 40.7 mM) | – | – | O=C1Cc2ccccc2C(=C2CCN(CCCCCOCOP(=O)(O)O)CC2)c2ccsc21 [Compound III-9] | 267.95 ± 51.16 | – | 67.25±17.74 | 1.17 ± 0.24 | – | – | 1.12 ± 0.29 | – | 34.50±19.89 | – | –
– | 1 (≈ 2.31 mM) | – | O=C1Cc2ccccc2C(=C2CCN(CCCOP(=O)(O)O)CC2)c2ccsc21 [Compound IV-3] | 371.38 ± 49.10 | – | 64.91±18.92 | – | – | – | – | – | 30.95±19.69 | – | Content ([5]; Month 0): 99.7%; Description ([5]; Month 0): White powder; Related substances ([5]; Month 0): 0.03%; Description ([5]; Month 1): White powder; Related substances ([5]; Month 1): 0.05%; Content ([5]; Month 1, 43800 min): 99.7%; Description ([5]; Month 2): White powder; Related substances ([5]; Month 2): 0.09%; Content ([5]; Month 2, 87600 min): 99.6%; Description ([5]; Month 3): White powder; Related substances ([5]; Month 3): 0.12%; Content ([5]; Month 3, 131400 min): 99.6%; Description ([5]; Month 6): White powder; Related substances ([5]; Month 6): 0.25%; Content ([5]; Month 6, 262800 min): 99.4%
Practically insoluble | 28 (≈ 73.1 mM) | 22 (≈ 57.5 mM) | OCCCCN1CCC(=C2c3ccc(Cl)cc3CCc3cccnc32)CC1 [Hydroxybutyl desloratadine, reference compound] | 286.23 ± 55.29 | – | 57.77±13.69 | 1.45 ± 0.47 | – | – | 1.31 ± 0.28 | – | – | 24.27±12.31 | –
Practically insoluble | 21 (≈ 59.2 mM) | 27 (≈ 76.1 mM) | OCCN1CCC(=C2c3ccc(Cl)cc3CCc3cccnc32)CC1 [Hydroxyethyl desloratadine, reference compound] | 281.12 ± 54.82 | – | 58.53±10.79 | 1.41 ± 0.43 | – | – | 1.33 ± 0.27 | – | – | 21.76±10.04 | –
Practically insoluble | 32 (≈ 77.9 mM) | 15 (≈ 36.5 mM) | OCCCCCCN1CCC(=C2c3ccc(Cl)cc3CCc3cccnc32)CC1 [Hydroxyhexyl desloratadine, reference compound] | 281.18 ± 53.76 | – | 58.06±13.39 | 1.43 ± 0.47 | – | – | 1.30 ± 0.30 | – | – | 24.42±11.13 | –
Practically insoluble | 29 (≈ 73.1 mM) | 19 (≈ 47.9 mM) | OCCCCCN1CCC(=C2c3ccc(Cl)cc3CCc3cccnc32)CC1 [Hydroxypentyl desloratadine, reference compound] | 284.29 ± 57.34 | – | 57.48±12.05 | 1.44 ± 0.51 | – | – | 1.28 ± 0.24 | – | – | 25.14±12.21 | –
Practically insoluble | 26 (≈ 70.5 mM) | 24 (≈ 65.1 mM) | OCCCN1CCC(=C2c3ccc(Cl)cc3CCc3cccnc32)CC1 [Hydroxypropyl desloratadine, reference compound] | 285.28 ± 56.32 | – | 57.05±12.07 | 1.46 ± 0.49 | – | – | 1.30 ± 0.24 | – | – | 23.97±11.12 | –
Practically insoluble | – | – | Cc1cncc(CN2CCC(=C3c4ccccc4CC(=O)c4sccc43)CC2)c1 [Rupatifen, reference compound] | 253.23 ± 52.29 | – | 55.42±11.38 | 1.52 ± 0.46 | – | – | 1.31 ± 0.25 | – | – | 23.84±11.10 | –

SMILES | Solubility in Water [2] | Solubility in Isopropanol [2] [mg/mL] | Solubility in Methanol [2] [mg/mL] | Post-administration latency period [1] [s] | Pre-administration latency period [1] [s] | Antispasmodic percentage [3] [%] | Smooth muscle tone After administration (histamine) [g] | Smooth muscle tone After addition of histamine (histamine) [g] | Smooth muscle tone Before administration (histamine) [g] | Smooth muscle tone After administration [4] [g] | Smooth muscle tone Before administration [4] [g] | Antispasmodic percentage ([4]; 5 min) [%] | Antispasmodic percentage [4] [%] | further results
O=C1Cc2ccccc2C(=C2CCN(CCOP(=O)(O)O)CC2)c2ccsc21 [Compound III-2] | 20 mg/mL (≈ 47.7 mM) | – | – | 377.22 ± 50.87 | 99.48 ± 50.88 | 65.39±17.28 | 1.18 ± 0.21 | 3.41 ± 0.89 | 1.75 ± 0.18 | 1.21 ± 0.24 | 1.70 ± 0.21 | 28.82±16.05 | – | –
